Assay: gradient 5% acetonitrile 3 min, to 50% in 2 min, to 85% in 15 min, held 3 min, 100 µL/min
Details: column: Zorbax Extend-C18 2.1 x 50 mm; eluents: water / acetonitrile, 0.1% formic acid
In short: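 Retention times of pure standards were taken from adduct peaks that were selected by computer and manually inspected. Over 3 months, mixtures of ~100 molecules were run by HPLC–quadrupole time-of-flight mass spectrometry in positive and negative ionization mode. The Zorbax Extend-C18 column (2.1 × 50 mm, 1.8 μm) ran at 100 μL/min in water and acetonitrile, each containing 0.1% formic acid, with 40 μL dead volume and 900 μL dwell volume.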

| Structure (SMILES) | RP-LC retention time [s] |
| --- | --- |
| O=C(Nc1ccc2nc(N3CCC(N4CCCCC4)CC3)cc(C(=O)O)c2c1)c1cccc(Cl)c1 | 601 |
| CC1CCc2nc3ncn(CC(=O)Nc4cccc(C#N)c4)c(=O)c3cc2C1 (stereo not given) | 738 |
| CCc1nc2ccc(-c3noc(CNC(=O)c4ccccc4)n3)cc2n1CC | 637 |
| CCOC(=O)c1sc(NC(=O)c2cc(OC)ccc2OC)cc1C | 1000 |
| O=C1OC(Cc2ccccc2)C(c2ccccc2)C1=O (stereo not given) | 976 |
| O=C(COc1ccc(Cl)cc1)NCc1ccc2c(c1)OCCCO2 | 870 |
| Fc1ccc(-c2nnc(Cc3nc(-c4cccc(F)c4)no3)o2)cc1 | 990 |
| CN(CC(=O)N1CCN(Cc2ccccc2)CC1)S(=O)(=O)c1ccc2c(c1)CCCC(=O)N2 | 600 |
| Cc1cccn2cc(-c3cccc(S(=O)(=O)N4CC(C)OC(C)C4)c3)nc12 (stereo not given) | 671 |
| Cc1cc(=O)n(CC(=O)NCc2ccc(F)c(Cl)c2)c(N2CCCCC2)n1 | 716 |
| Cc1ccc(S(=O)(=O)N2C[C@@H]3C[C@H](NC(=O)c4ccccc4)[C@H]2C3)cc1Cl | 969 |
| CN(C)c1ccc(-c2nc3cnc(Br)cn3c2Nc2ccc3c(c2)OCCO3)cc1 | 881 |
| C=CCOc1c(CCC)cc(CCC)cc1C(N)=O | 1130 |
| CCn1ccc(C(=O)Nc2cnc(-c3cccc(Cl)c3)nc2)n1 | 1020 |
| O=C(NCCc1cccs1)c1cc[nH]c1C1CCCNC1 (stereo not given) | 614 |
| COC(=O)c1cc(OCC(=O)Nc2cc(F)ccc2F)c2cc(OC)ccc2n1 | 880 |
| COc1cc(-c2cc(CN(CC3CCCO3)C(=O)C3CCCCC3)no2)cc(OC)c1OC (stereo not given) | 968 |
| COc1ccc(Cl)cc1NC(=O)c1sc(-c2cn(C)c3ncccc23)nc1C | 1220 |
| CN1c2ccc(Cl)cc2C(=O)NC12CCN(C(=O)Nc1ccccc1)CC2 | 800 |
| CCOC(=O)c1cnc(N2CCN(Cc3ccccc3)CC2)c2ccccc12 | 755 |

| Structure (SMILES) | RP-LC retention time [s] |
| --- | --- |
| COc1ccc(C2=NN(S(C)(=O)=O)C(c3ccc4nccnc4c3)C2)c(F)c1 (stereo not given) | 740 |
| O=C(CN1C(=O)CCS(=O)(=O)c2ccccc21)NCCc1ccccc1 | 745 |
| Cc1nnc2n1CCC(N(C)C(=O)Cc1cccs1)CC2 (stereo not given) | 571 |
| O=C(Cc1nc(-c2ccccn2)n[nH]1)Nc1ccc(F)c(F)c1 | 651 |
| Cc1cc(OCC(=O)Nc2cc(F)ccc2F)nc(N2CCN(c3ccccc3)CC2)n1 | 900 |
| CCOC(=O)Nc1c2ccccc2nc2ccccc12 | 660 |
| COc1ccc(CN(C)Cc2cc(=O)n3cc(Cl)ccc3n2)cc1 | 624 |
| CSc1ccc(NC(=O)N2CCC(c3nc(C(=O)N4CCCCC4)c(C)o3)CC2)cc1 | 840 |
| O=C(O)c1ccc(Nc2ncc3c(n2)-c2ccc(Cl)cc2C(c2c(F)cccc2F)=NC3)cc1 | 947 |
| COc1ccc(C(=O)N2CCC3(CC2)NC(=O)c2cccc(Cl)c2N3)cc1 | 738 |
| COc1ccccc1CCC(=O)N1CCCn2nc(-c3ccc(C)cc3)cc2C1 | 1020 |
| CCc1nnc2cc(N3CCN(S(=O)(=O)c4cccc(F)c4)CC3)cnn12 | 690 |
| Cn1cnc(S(=O)(=O)N2CCC(Cc3nncn3-c3ccccc3)CC2)c1 | 629 |
| CCc1nc2cc(N3CCC(C(=O)NCc4ccc(OC)cc4)CC3)cnc2nc1CC | 833 |
| COc1ccccc1C(=O)N1CCc2cn(C)c3cccc(c23)C1 | 920 |
| CCC(=O)N1CCC(C2CCN(S(=O)(=O)c3ccccc3)CC2)C1 (stereo not given) | 788 |
| O=C(NC1CCCCC1)c1ccc2c(c1)CCN2C(=O)C1CC1 | 824 |
| CN(C)S(=O)(=O)c1ccc2c(c1)N(CC(=O)NCc1cccc(Cl)c1)C(=O)C1CCCCN21 (stereo not given) | 957 |
| O=C(Cn1c(=O)cc(C(=O)N2CCCC2)c2ccccc21)Nc1cc(F)ccc1F | 737 |
| CCC(CC)C(=O)Nc1c(-c2ccc(F)cc2)nc2cc(C)ccn12 | 674 |

| Structure (SMILES) | RP-LC retention time [s] |
| --- | --- |
| CCC(=O)Nc1ccc(-n2cnc(C(=O)N3CC(C)CC(C)C3)c2)nc1 (stereo not given) | 772 |
| Cc1c(S(=O)(=O)N2CCC(C)CC2)c(C)n(C)c1-c1nnc(C2CCC2)o1 | 1100 |
| O=C(Nc1ccc(OCC(=O)N2CCN(c3ncccn3)CC2)nc1)C1CC1 | 624 |
| CC(C)Cn1cc(CCNC(=O)c2cccc(C(F)(F)F)c2)c2cccnc21 | 940 |
| COc1cccc(OC)c1OCC(O)CN1CCN(c2ccccc2)CC1 (stereo not given) | 668 |
| Cc1cc(C(=O)Nc2ccc(Cl)cc2)nc2ccnn12 | 1010 |
| CCOc1ccc(N2C(=O)C3N=NN(Cc4nc(-c5ccc(C)c(C)c5)no4)C3C2=O)cc1 (stereo not given) | 1110 |
| CCC(CC)C(=O)Nc1c(-c2ccccc2)nc2cc(C)ccn12 | 654 |
| CC1(C)CCSC(/C=C/c2ccccc2)=N1 | 690 |
| Cc1ccc(CNC(=O)CN2CCN(Cc3cccc(Cl)c3)C2=O)o1 | 810 |
| CCC(=O)Nc1ccc(-n2cnc(C(=O)NCC3CCCO3)c2)nc1 (stereo not given) | 614 |
| CCCCCc1cc(O)c2c(c1)OC(C)(C)[C@@H]1CCC(C(=O)O)=CC21 (stereo not given in full) | 1130 |
| O=C(COc1ccc(NC(=O)C2CC2)cn1)NC1CCN(Cc2ccccc2)CC1 | 590 |
| CCOC(=O)c1nc(NCc2ccccc2OCC)c2c(C)noc2n1 | 988 |
| O=C(Cn1nc2n(c1=O)CCCC2)Nc1ccccc1 | 633 |
| CCn1cc(-c2nc(C(=O)Nc3ccc(C(=O)OC)cc3)cs2)c2cccnc21 | 1080 |
| Cc1cc(C)c(C(=O)N2CCC(CC(=O)NCc3ccc(F)cc3)CC2)[nH]1 | 759 |
| C=CC(=O)Nc1cccc(Oc2nc(Nc3ccc(N4CCN(C)CC4)cc3OC)ncc2Cl)c1 | 718 |
| CNC(=O)c1c(C)c(-c2ccccc2)n(C)c1C | 812 |
| CCNC(=O)c1ccc2c(c1)CCCN2S(=O)(=O)c1ccc(Cl)cc1 | 887 |

Other lines, results leading:

| RP-LC retention time [s] | Structure (SMILES) |
| --- | --- |
| 787 | COc1ccc(S(=O)(=O)C(CNC(=O)c2ccc3c(c2)OCO3)c2cccs2)cc1 (stereo not given) |
| 573 | O=C(NCc1ccc2c(c1)OCO2)C1CCCN(c2nnc3ccccn23)C1 (stereo not given) |
| 750 | COc1ccccc1N1CCN(c2ncc(C(=O)O)c(C)n2)CC1 |
| 884 | O=C(CCC1CCCN(C(=O)Nc2ccc(Cl)cc2)C1)NCc1ccccc1 (stereo not given) |
| 713 | O=C(NCCC1CCN(C(=O)Nc2ccccc2F)CC1)c1ccoc1 |
| 683 | CC(=O)c1ccc(NC(=O)C2Oc3ccccc3NC2=O)cc1 (stereo not given) |
| 705 | CCC(C(=O)N1CCN(c2ccccn2)CC1)n1nc(C)c2sc3ccccc3c2c1=O (stereo not given) |
| 577 | CN(CCNC(=O)C1CCCN(c2cnc3nccnc3c2)C1)C1CCCCC1 (stereo not given) |
| 941 | O=c1n(Cc2cccc(Br)c2)nc2c(S(=O)(=O)N3CCCCC3)cccn12 |
| 670 | COc1ccc(C(=O)CC2(O)C(=O)Nc3ccc(C)cc32)cc1OC (stereo not given) |
| 596 | CCN1CCCC1CNC(=O)CN1C(=O)C2CCCCN2c2ccc(C(=O)N(C)C)cc21 (stereo not given) |
| 735 | CCOc1ccc(C(=O)NC(C(=O)Nc2nc3ccccc3[nH]2)C(C)C)cc1OCC (stereo not given) |
| 554 | COC(=O)N1CCc2ccc(F)cc2C1C(=O)NCc1cccnc1 (stereo not given) |
| 1050 | COc1cccc(-c2nc(C3CC(=O)N(c4ccc(Cl)cc4)C3)no2)c1 (stereo not given) |
| 566 | O=C(Nc1cccc(C(F)(F)F)c1)N1CCN(c2ccc(Nc3cccnc3)nn2)CC1 |
| 1020 | Cc1nn(C)c2nc(OC(C)C(=O)NCc3ccc(Cl)cc3)cc(C(F)(F)F)c12 (stereo not given) |
| 1020 | COc1cc(-c2noc(Cn3ncn4nc(-c5ccc(F)cc5)cc4c3=O)n2)cc(OC)c1OC |
| 717 | CCc1cc(=O)n(CC(=O)NCc2ccc(F)cc2)c(N2CCOCC2)n1 |
| 687 | Cc1ccc(NC(=O)CC2COc3ccccc3NC2=O)cc1C (stereo not given) |
| 1030 | CCOCCCNC(=O)c1ccc(Oc2nccnc2N2CCC(C)CC2)cc1 |
| 651 | O=S(=O)(c1ccc(Cl)cc1)c1ccc(N2CCN(c3ccccn3)CC2)nn1 |
| 1040 | Cc1ccc(CNC(=O)Cn2nc(C)c3nn(-c4ccc(Cl)cc4)c(-n4cccc4)c3c2=O)o1 |
| 1110 | CC(C)Oc1ccc(-c2noc(Cc3nnc(-c4ccc(F)cc4)o3)n2)cc1 |
| 1070 | O=C(NC1CCCCC1)c1cccn1Cc1noc(-c2ccccc2)n1 |
| 668 | Cn1c(=O)n(C2CCCN(C(=O)Cc3ccccc3)C2)c2ncncc21 (stereo not given) |
| 581 | O=C(c1ccc(Cl)cc1)N(CCS(=O)(=O)N1CCNCC1)CC1CCCO1 (stereo not given) |
| 809 | O=C(CN1C(=O)NC2(CCCCC2)C1=O)Nc1ccc(Cl)cc1F |
| 637 | Cc1noc(C)c1CN1CC2(CCCCC2)CC1COc1ccncc1 (stereo not given) |
| 644 | COc1ccc(C(=O)N2CCC(n3c(-c4ccco4)nc4cccnc43)C2)cc1OC (stereo not given) |
| 568 | O=C(Cn1cnc(-c2ccc(Cl)cc2)cc1=O)NCc1cccnc1 |

From the METLIN SMRT retention time set (Domingo-Almenara et al. 2019)
